# Data from patent US20080234306A1, “N-Oxides of 4,5-Epoxy-Morphinanium Analogs” (Progenics Pharmaceuticals, Inc., priority 2006, published 2008).
# Assays:
# μ-opioid receptor [1] = system: T1, μ-opioid receptor; test: Evaluation of agonist activity at the μ-opioid receptor, guinea pig ileum test
# T1 construct: Responses to increasing concentrations of the compounds (% control response to DAMGO); other: compound 1.0E^−04 M; Responses to increasing concentrations of the compounds (% control response to DAMGO); other: compound 1.0E^−08 M; other: compound 3.0E^−08 M; Responses to increasing concentrations of the com
# Protocol: (§1) Evaluation for Agonist and Antagonist Activities at the […] Receptors in the Guinea Pig Ileum
# (§2) Agonist/antagonist activity at the μ-opioid receptor was determined using the well known guinea pig ileum test. Briefly, an a section of ileum was placed in a stabilized solution in a tensed state. Transducers were used to measure changes in tension upon electrical stimulation to the tissue before and after challenge with a potential agonist/antagonist Using a control, constriction inhibition, and constriction inhibition cancellation, may be measured.
# human μ-receptor = human μ-receptor (Homo sapiens, UniProt P35372); test: human μ-receptor model (binding, Ki); conditions: read-out: % Inhibition at 1 × 10^−5 M
# μ-opioid receptor [2] = biological target: T2, μ-opioid receptor (Cavia porcellus, UniProt A0ACM8Q262); test: Evaluation of antagonist activity at the μ-opioid receptor, guinea pig ileum test (tissue model, responses to DAMGO); conditions: for IC50: tissue model for antagonist activity
# Protocol: as §1, §2
# μ-opioid receptor [3] = biological target: T2, μ-opioid receptor; test: Evaluation of agonist activity at the μ-opioid receptor, guinea pig ileum test
# Protocol: as §1, §2
# [4] = guinea pig, read-out: Responses to DAMGO (1.0E−07 M) in the presence of increasing concentrations of the compounds (% control response)
# Chain of human μ-receptor (P35372 whole entry): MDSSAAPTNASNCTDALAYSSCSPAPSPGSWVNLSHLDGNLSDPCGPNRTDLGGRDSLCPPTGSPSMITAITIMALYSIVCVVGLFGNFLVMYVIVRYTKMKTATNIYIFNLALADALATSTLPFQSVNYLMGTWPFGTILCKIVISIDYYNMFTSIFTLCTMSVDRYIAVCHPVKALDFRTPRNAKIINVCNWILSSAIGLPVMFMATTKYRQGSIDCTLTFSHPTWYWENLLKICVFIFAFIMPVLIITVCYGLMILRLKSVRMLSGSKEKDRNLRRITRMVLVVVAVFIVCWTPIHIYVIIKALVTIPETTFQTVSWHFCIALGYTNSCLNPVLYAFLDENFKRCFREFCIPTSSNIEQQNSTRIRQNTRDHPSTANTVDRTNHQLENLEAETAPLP
# T2 sequence (A0ACM8Q262 1-400): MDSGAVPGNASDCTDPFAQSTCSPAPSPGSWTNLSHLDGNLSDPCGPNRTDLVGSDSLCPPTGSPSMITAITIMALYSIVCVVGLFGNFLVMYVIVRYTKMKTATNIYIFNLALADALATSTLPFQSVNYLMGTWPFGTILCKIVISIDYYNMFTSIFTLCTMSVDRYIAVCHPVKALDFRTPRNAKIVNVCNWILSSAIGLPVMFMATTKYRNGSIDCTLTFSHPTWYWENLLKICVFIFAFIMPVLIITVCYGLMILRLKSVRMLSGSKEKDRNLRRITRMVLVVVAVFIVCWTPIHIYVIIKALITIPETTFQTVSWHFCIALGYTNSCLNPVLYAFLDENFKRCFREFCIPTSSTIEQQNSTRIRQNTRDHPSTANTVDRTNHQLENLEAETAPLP
smiles,measurement,setting,value
"O=C1CC[C@@]2(O)[C@H]3Cc4ccc(O)c5c4[C@@]2(CC[N+]3([O-])CC2CC2)[C@H]1O5 (stereo partly drawn) [Compound C0001, (S)-17-Cyclopropylmethyl-4,5α-epoxy-3,14-hydroxy-morphinan-6-one N-oxide]",Responses to increasing concentrations of the compounds (% control response to DAMGO),μ-opioid receptor [1]; compound 1.0E^−04 M,0%
same,Responses to increasing concentrations of the compounds (% control response to DAMGO),μ-opioid receptor [1]; compound 1.0E^−05 M,0%
same,Responses to increasing concentrations of the compounds (% control response to DAMGO),μ-opioid receptor [1]; compound 1.0E^−06 M,0%
same,Responses to increasing concentrations of the compounds (% control response to DAMGO),μ-opioid receptor [1]; compound 1.0E^−07 M,0%
same,Responses to increasing concentrations of the compounds (% control response to DAMGO),μ-opioid receptor [1]; compound 1.0E^−08 M,0%
same,Responses to increasing concentrations of the compounds (% control response to DAMGO),μ-opioid receptor [1]; compound 3.0E^−05 M,0%
same,Responses to increasing concentrations of the compounds (% control response to DAMGO),μ-opioid receptor [1]; compound 3.0E^−06 M,0%
same,Responses to increasing concentrations of the compounds (% control response to DAMGO),μ-opioid receptor [1]; compound 3.0E^−07 M,0%
same,Responses to increasing concentrations of the compounds (% control response to DAMGO),μ-opioid receptor [1]; compound 3.0E^−08 M,0%
same,agonistic activity,"μ-opioid receptor [1]; concentration of 1.0×10^−4 M, versus DAMGO",No agonistic activity
same,inhibition at 10 µM,human μ-receptor,96%
same,remaining activity at 0.01 µM,μ-opioid receptor [2]; [4],100%
same,remaining activity at 0.03 µM,μ-opioid receptor [2]; [4],91%
same,remaining activity at 0.1 µM,μ-opioid receptor [2]; [4],80%
same,remaining activity at 0.3 µM,μ-opioid receptor [2]; [4],62%
same,remaining activity at 1 µM,μ-opioid receptor [2]; [4],36%
same,remaining activity at 3 µM,μ-opioid receptor [2]; [4],23%
same,remaining activity at 10 µM,μ-opioid receptor [2]; [4],16%
same,remaining activity at 30 µM,μ-opioid receptor [2]; [4],16%
same,remaining activity at 100 µM,μ-opioid receptor [2]; [4],16%
same,IC50,μ-opioid receptor [2],560 nM
"C[C@@H](NC(=O)[C@@H](N)Cc1ccc(O)cc1)C(=O)NCC(=O)N(C)[C@@H](Cc1ccccc1)C(=O)NCCO [DAMGO, D-Ala^2,N-Me-Phe^4,Gly^5-ol-enkephalin, reference compound]",Response + Naloxone (1.0E^−07 M),"μ-opioid receptor [3]; after highest compound concentration, + naloxone 1.0E^−07 M",4%
same,activation at 1 µM,"μ-opioid receptor [3]; compound 1.0E^−06 M, read-out: Responses to increasing concentrations of the compounds (% control response to DAMGO)",103%
same,activation at 0.1 µM,"μ-opioid receptor [3]; compound 1.0E^−07 M, read-out: Responses to increasing concentrations of the compounds (% control response to DAMGO)",96%
same,activation at 0.01 µM,"μ-opioid receptor [3]; compound 1.0E^−08 M, read-out: Responses to increasing concentrations of the compounds (% control response to DAMGO)",57%
same,activation at 0.001 µM,"μ-opioid receptor [3]; compound 1.0E−09 M, read-out: Responses to increasing concentrations of the compounds (% control response to DAMGO)",9%
C=C1CC[C@@]2(O)[C@H]3Cc4ccc(O)c5c4[C@@]2(CC[N+]3([O-])CC2CC2)[C@H]1O5 (stereo partly drawn) [Compound C0002],inhibition at 10 µM,human μ-receptor,94%
same,IC50,μ-opioid receptor [2],> 100000 nM
O=C1CC[C@H]2[C@H]3Cc4ccc(O)c5c4[C@@]2(CC[N+]3([O-])CC2CC2)[C@H]1O5 (stereo partly drawn),melting point,,209 to 211 °C
C=C1CC[C@@]2(OCCCc3ccccc3)[C@H]3Cc4ccc(O)c5c4[C@@]2(CC[N+]3([O-])CC2CC2)[C@H]1O5.O=C(O)C(F)(F)F (stereo partly drawn),melting point,,182 °C (dec.)
"[O-][N+]1(CC2CC2)CC[C@]23c4c5ccc(O)c4O[C@H]2[C@@H](Cn2ccnc2)CC[C@@]3(O)[C@H]1C5 (stereo partly drawn) [Compound C0018, 17-Cyclopropylmethyl-4,5α-epoxy-3,14-dihydroxy-6α-(1H-imidazol-1-yl)methyl morphinan N-oxide]",inhibition at 10 µM,human μ-receptor,89%
"Oc1ccc2c3c1O[C@H]1[C@@H](O)CC[C@@]4(O)[C@@H](C2)[N+](O)(CC2CC2)CC[C@]314 (stereo partly drawn) [Compound C0003, (S)-17-Cyclopropylmethyl-4,5α-epoxy-morphinan-3,6α,14-triol N-oxide]",inhibition at 10 µM,human μ-receptor,100%
"[O-][N+]1(CC2CC2)CC[C@]23c4c5ccc(O)c4O[C@H]2CCC[C@@]3(O)[C@H]1C5 (stereo partly drawn) [Compound C0023, 17-Cyclopropylmethyl-4,5α-epoxy-3,14-dihydroxymorphinan-N-oxide]",inhibition at 10 µM,human μ-receptor,101%
"[O-][N+]1(CC2CC2)CC[C@]23c4c5ccc(O)c4O[C@H]2[C@@H](CO)CC[C@@]3(O)[C@H]1C5 (stereo partly drawn) [Compound C0021, 17-cyclopropylmethyl-4,5α-epoxy-3,14-dihydroxy-6α-hydroxymethyl morphinan N-oxide]",inhibition at 10 µM,human μ-receptor,95%
"CC1C[C@@]2(O)[C@H]3Cc4ccc(O)c5c4[C@@]2(CC[N+]3([O-])CC2CC2)[C@@H](O5)C1=O (stereo partly drawn) [Compound C0030, (S)-17-Cyclopropylmethyl-4,5α-epoxy-3,14-dihydroxy-7-methyl-morphinan-6-one N-oxide]",inhibition at 10 µM,human μ-receptor,67%
[O-][N+]1(CC2CC2)CC[C@]23c4c5ccc(O)c4O[C@H]2[C@@H](O)CC[C@@]3(OCCCc2ccccc2)[C@H]1C5 (stereo partly drawn),melting point,,155 to 159 °C
